Test results published in patent US12600725B2 (Memorial Sloan-Kettering Cancer Center, priority 2013, dated 2026).

Key:
Grp94 = Grp94 (Canis lupus familiaris, UniProt P41148); conditions: read-out: Grp94; FP competition, 6 nM Cy3B-GM, 10 nM protein, 4° C. for 24 h
Hsp90α = Hsp90α (Homo sapiens, UniProt P07900); assay: biochemical; conditions: FP competition, 6 nM Cy3B-GM, 10 nM protein, 4° C. for 24 h
Trap-1 = biological target: T1, Trap-1 (Homo sapiens, UniProt Q12931); assay: biochemical
T1 sequence (Q12931 60-704): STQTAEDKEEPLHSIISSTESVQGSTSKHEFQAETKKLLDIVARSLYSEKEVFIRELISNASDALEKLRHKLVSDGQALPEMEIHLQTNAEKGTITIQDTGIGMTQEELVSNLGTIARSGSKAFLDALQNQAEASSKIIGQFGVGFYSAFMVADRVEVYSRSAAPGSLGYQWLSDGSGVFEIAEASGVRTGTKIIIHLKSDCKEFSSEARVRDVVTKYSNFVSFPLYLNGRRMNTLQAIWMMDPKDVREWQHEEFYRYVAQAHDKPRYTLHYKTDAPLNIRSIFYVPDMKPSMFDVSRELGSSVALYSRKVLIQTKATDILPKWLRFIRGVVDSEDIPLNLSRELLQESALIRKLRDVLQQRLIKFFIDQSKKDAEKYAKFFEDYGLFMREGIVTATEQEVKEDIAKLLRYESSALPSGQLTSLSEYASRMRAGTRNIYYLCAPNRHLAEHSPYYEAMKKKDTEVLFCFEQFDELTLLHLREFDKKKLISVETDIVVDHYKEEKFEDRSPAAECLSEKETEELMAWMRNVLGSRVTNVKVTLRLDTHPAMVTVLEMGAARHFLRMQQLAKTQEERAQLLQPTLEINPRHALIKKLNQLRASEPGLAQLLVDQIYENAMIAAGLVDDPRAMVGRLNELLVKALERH

Hsp90β = Hsp90β (Homo sapiens, UniProt P08238)
Chain of Hsp90β (P08238 whole entry): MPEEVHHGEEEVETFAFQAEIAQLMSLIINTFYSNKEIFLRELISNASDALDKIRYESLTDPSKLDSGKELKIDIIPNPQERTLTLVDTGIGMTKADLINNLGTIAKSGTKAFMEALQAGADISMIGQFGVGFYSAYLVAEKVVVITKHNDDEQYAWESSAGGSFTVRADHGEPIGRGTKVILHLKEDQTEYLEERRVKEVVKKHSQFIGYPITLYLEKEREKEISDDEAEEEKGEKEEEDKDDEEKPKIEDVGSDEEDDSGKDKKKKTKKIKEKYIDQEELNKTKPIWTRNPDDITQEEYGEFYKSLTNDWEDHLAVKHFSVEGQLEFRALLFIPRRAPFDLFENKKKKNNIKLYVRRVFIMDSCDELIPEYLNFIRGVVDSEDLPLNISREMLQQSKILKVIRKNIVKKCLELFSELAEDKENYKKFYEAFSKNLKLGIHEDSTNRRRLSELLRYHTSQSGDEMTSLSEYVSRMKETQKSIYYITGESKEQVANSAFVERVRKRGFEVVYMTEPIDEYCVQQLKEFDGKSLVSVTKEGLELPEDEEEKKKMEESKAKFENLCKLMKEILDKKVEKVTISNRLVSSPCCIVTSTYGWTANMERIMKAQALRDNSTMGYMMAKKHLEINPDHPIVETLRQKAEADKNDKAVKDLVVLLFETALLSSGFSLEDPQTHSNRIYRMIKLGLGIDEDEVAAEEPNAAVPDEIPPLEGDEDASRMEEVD

Chain of Grp94 (P41148 with tags, fused parts or gaps DELINS287-327GGGG): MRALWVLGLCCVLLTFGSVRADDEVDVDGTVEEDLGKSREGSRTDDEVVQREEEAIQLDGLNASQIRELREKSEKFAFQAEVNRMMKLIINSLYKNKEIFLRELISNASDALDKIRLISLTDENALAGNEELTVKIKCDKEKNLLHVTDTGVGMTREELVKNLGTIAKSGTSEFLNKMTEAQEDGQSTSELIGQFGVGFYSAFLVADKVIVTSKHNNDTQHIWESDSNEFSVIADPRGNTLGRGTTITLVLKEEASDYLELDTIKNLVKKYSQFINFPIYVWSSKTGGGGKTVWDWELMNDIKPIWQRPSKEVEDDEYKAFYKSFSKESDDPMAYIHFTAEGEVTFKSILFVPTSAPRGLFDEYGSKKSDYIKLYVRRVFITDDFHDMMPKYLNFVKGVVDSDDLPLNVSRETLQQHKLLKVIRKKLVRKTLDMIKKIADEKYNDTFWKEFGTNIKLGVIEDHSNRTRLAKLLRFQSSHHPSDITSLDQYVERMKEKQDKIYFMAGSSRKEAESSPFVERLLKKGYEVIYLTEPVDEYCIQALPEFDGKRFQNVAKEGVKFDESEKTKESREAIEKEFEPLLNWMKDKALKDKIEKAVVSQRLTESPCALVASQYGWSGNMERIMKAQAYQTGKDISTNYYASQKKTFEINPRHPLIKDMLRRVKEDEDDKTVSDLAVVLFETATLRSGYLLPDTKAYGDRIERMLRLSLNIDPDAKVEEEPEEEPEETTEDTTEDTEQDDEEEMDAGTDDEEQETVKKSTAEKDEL

IC50 (Grp94)	IC50 (Hsp90α)	IC50 (Trap-1)	IC50 (Hsp90β)	Compound
1.9 µM	28.9 µM	4.4 µM	–	CC(C)(CO)NCCn1c(Sc2ccc(Cl)cc2Cl)nc2c(N)ncnc21 [HJP-V-84, 2-((2-(6-Amino-8-((2,4-dichlorophenyl)thio)-9H-purin-9-yl)ethyl)amino)-2-methylpropan-1-ol]
2.3 µM	9.2 µM	2.6 µM	–	CC(C)(O)CNCCn1c(Sc2ccc(Cl)cc2Cl)nc2c(N)ncnc21 [HJP-V-85, 1-((2-(6-Amino-8-((2,4-dichlorophenyl)thio)-9H-purin-9-yl)ethyl)amino)-2-methylpropan-2-ol]
0.45 ± 0.03 µM	> 50 µM	4.47 ± 0.31 µM	> 100 µM	N#CCCCn1c(Sc2cc(Cl)cc(Cl)c2)nc2c(N)ncnc21 [PDP-93A, 4-(6-Amino-8-((3,5-dichlorophenyl)thio)-9H-purin-9-yl)butanenitrile]
> 100 µM	> 100 µM	> 100 µM	> 100 µM	N#CCCCn1cnc(N)c2nc(Sc3cc(Cl)cc(Cl)c3)nc1-2 [PDP-93B, 4-(6-Amino-8-((3,5-dichlorophenyl)thio)-3H-purin-3-yl)butanenitrile]
1.52 ± 0.03 µM	> 100 µM	> 100 µM	> 100 µM	CC(Br)CCCn1c(Sc2cc(Cl)cc(Cl)c2)nc2c(N)ncnc21 (stereo not drawn) [PDP-99A, 9-(4-Bromopentyl)-8-((3,5-dichlorophenyl)thio)-9H-purin-6-amine]
> 10 µM	> 100 µM	> 100 µM	–	CC(Br)CCCn1cnc(N)c2nc(Sc3cc(Cl)cc(Cl)c3)nc1-2 (stereo not drawn) [PDP-99B, 3-(4-Bromopentyl)-8-((3,5-dichlorophenyl)thio)-3H-purin-6-amine]
> 100 µM	> 100 µM	> 100 µM	> 100 µM	Nc1ncn(CCCCCC(F)(F)F)c2nc(Sc3cc(Cl)cc(Cl)c3)nc1-2 [PDP-101A, 8-((3,5-Dichlorophenyl)thio)-3-(6,6,6-trifluorohexyl)-3H-purin-6-amine]
1.65 ± 0.31 µM	> 100 µM	> 100 µM	> 100 µM	Nc1ncnc2c1nc(Sc1cc(Cl)cc(Cl)c1)n2CCCCCC(F)(F)F [PDP-101B, 8-((3,5-Dichlorophenyl)thio)-9-(6,6,6-trifluorohexyl)-9H-purin-6-amine]
> 5 µM	> 100 µM	> 50 µM	> 100 µM	CC#CCn1c(Sc2cc(Cl)cc(Cl)c2)nc2c(N)ncnc21 [PDP-102A, 9-(But-2-yn-1-yl)-8-((3,5-dichlorophenyl)thio)-9H-purin-6-amine]
10.3 ± 0.82 µM	> 100 µM	> 25 µM	> 100 µM	CC#CCn1cnc(N)c2nc(Sc3cc(Cl)cc(Cl)c3)nc1-2 [PDP-102B, 3-(But-2-yn-1-yl)-8-((3,5-dichlorophenyl)thio)-3H-purin-6-amine]
> 5 µM	> 100 µM	> 50 µM	–	Nc1ncnc2c1nc(Sc1cc(Cl)cc(Cl)c1)n2Cc1ccccc1 [PDP-107A, 9-Benzyl-8-((3,5-dichlorophenyl)thio)-9H-purin-6-amine]
11.6 µM	> 100 µM	> 100 µM	> 100 µM	Nc1ncn(Cc2ccccc2)c2nc(Sc3cc(Cl)cc(Cl)c3)nc1-2 [PDP-107B, 3-Benzyl-8-((3,5-dichlorophenyl)thio)-3H-purin-6-amine]
0.133 µM	> 50 µM	> 50 µM	> 100 µM	C#CCCCn1c(Sc2cc(Br)cc(I)c2)nc2c(N)ncnc21 [PDP-108A]
1.11 ± 0.28 µM	> 100 µM	> 100 µM	> 100 µM	Nc1ncnc2c1nc(Sc1cc(Cl)cc(Cl)c1)n2CCCCC(F)(F)F [PDP-109A, 8-((3,5-Dichlorophenyl)thio)-9-(5,5,5-trifluoropentyl)-9H-purin-6-amine]
> 5 µM	> 100 µM	> 100 µM	> 100 µM	Nc1ncn(CCCCC(F)(F)F)c2nc(Sc3cc(Cl)cc(Cl)c3)nc1-2 [PDP-109B, 8-((3,5-Dichlorophenyl)thio)-3-(5,5,5-trifluoropentyl)-3H-purin-6-amine]
4.34 ± 0.75 µM	> 100 µM	> 100 µM	> 100 µM	Nc1ncnc2c1nc(Sc1cc(Cl)cc(Cl)c1)n2CC1CCCCC1 [PDP-110A, 9-(Cyclohexylmethyl)-8-((3,5-dichlorophenyl)thio)-9H-purin-6-amine]
0.65 ± 0.05 µM	> 100 µM	> 100 µM	> 100 µM	C#CCCCCn1c(Sc2cc(Cl)cc(Cl)c2)nc2c(N)ncnc21 [PDP-112A, 8-((3,5-Dichlorophenyl)thio)-9-(hex-5-yn-1-yl)-9H-purin-6-amine]
> 10 µM	> 100 µM	> 100 µM	> 100 µM	C#CCCCCn1cnc(N)c2nc(Sc3cc(Cl)cc(Cl)c3)nc1-2 [PDP-112B, 8-((3,5-Dichlorophenyl)thio)-3-(hex-5-yn-1-yl)-3H-purin-6-amine]
1.58 µM	> 100 µM	34.4 µM	> 100 µM	C#CCCCn1c(Sc2ccc(Cl)cc2C(F)(F)F)nc2c(N)ncnc21 [PDP-117A]
1.96 µM	> 100 µM	> 100 µM	> 100 µM	C#CCCCn1c(Sc2cccc(Cl)c2Cl)nc2c(N)ncnc21 [PDP-119A]
0.46 ± 0.04 µM	–	> 50 µM	–	Nc1ncnc2c1nc(Sc1cc(Cl)cc(Cl)c1)n2CCCC(F)(F)F [PDP-I-15-N9, 8-((3,5-Dichlorophenyl)thio)-9-(4,4,4-trifluorobutyl)-9H-purin-6-amine]
0.22 ± 0.02 µM	–	> 100 µM	–	C#CCCCn1c(Sc2cc(Cl)cc(Br)c2)nc2c(N)ncnc21 [PDP-I-53-N9]

IC50 (Grp94)	IC50 (Hsp90α)	IC50 (Trap-1)	IC50 (Hsp90β)	Compound
0.28 ± 0.06 µM	–	2.62 ± 0.28 µM	> 50 µM	C#CCCCn1c(Sc2ccc(Br)cc2Cl)nc2c(N)ncnc21 [PDP-I-61-N9]
3.2 ± 0.4 µM	110 ± 20 µM	–	92 ± 2 µM	CCCCn1c(Cc2ccc(OC)cc2)nc2c(N)ncnc21 [PU1]
1.13 ± 0.2 µM	> 100 µM	–	> 100 µM	C#CCCCn1c(Sc2ccc(OC)cc2)nc2c(N)ncnc21 [PU-H1]
6.2 ± 2.5 µM	–	–	110 ± 120 µM	C#CCCCn1c(Sc2ccccc2OC)nc2c(N)ncnc21 [PU-H5]
0.35 ± 0.05 µM	> 100 µM	–	> 100 µM	C#CCCCn1c(Sc2ccccc2Cl)nc2c(N)ncnc21 [PU-H6]
34.5 ± 3.5 µM	47.4 ± 2.2 µM	–	22.4 ± 2.8 µM	C#CCCCn1c(Sc2ccc(OC)cc2OC)nc2c(N)ncnc21 [PU-H8]
1.4 ± 0.2 µM	> 100 µM	–	> 100 µM	C#CCCCn1c(Sc2ccccc2OC(F)(F)F)nc2c(N)ncnc21 [PU-H9]
185 ± 15 µM	> 100 µM	–	> 100 µM	C#CCCCn1cnc(N)c2nc(Sc3cc(C)ccc3C)nc1-2 [PU-H29]
29 ± 9 µM	> 100 µM	–	> 100 µM	C#CCCCn1c(Sc2ccccc2CO)nc2c(N)ncnc21 [PU-H34]
> 100 µM	> 100 µM	–	> 100 µM	C#CCCCn1cnc(N)c2nc(Sc3ccccc3CO)nc1-2 [PU-H35]
2.1 ± 0.56 µM	> 250 µM	–	> 250 µM	C#CCCCn1c(Sc2c(C)cc(C)cc2C)nc2c(N)ncnc21 [PU-H36]
20 ± 5 µM	> 100 µM	–	> 100 µM	C#CCCCn1cnc(N)c2nc(Sc3c(C)cc(C)cc3C)nc1-2 [PU-H37]
2.37 ± 0.79 µM	> 500 µM	–	> 500 µM	C#CCCCn1cnc(N)c2nc(Sc3ccc(Cl)cc3Cl)nc1-2 [PU-H38]
35.3 ± 5 µM	> 100 µM	–	> 100 µM	C#CCCCn1cnc(N)c2nc(Sc3cc(Cl)ccc3Cl)nc1-2 [PU-H43]
> 100 µM	> 100 µM	–	> 100 µM	C#CCCCn1cnc(N)c2nc(Sc3cc(C)cc(C)c3)nc1-2 [PU-H45]
> 100 µM	> 100 µM	–	> 100 µM	C#CCCCn1cnc(N)c2nc(Sc3ccccc3OC)nc1-2 [PU-H46]
–	> 100 µM	–	> 100 µM	C#CCCCn1cnc(N)c2nc(Sc3ccccc3Cl)nc1-2 [PU-H47]
106 µM	> 100 µM	–	> 100 µM	C#CCCCn1cnc(N)c2nc(Sc3ccccc3OC(F)(F)F)nc1-2 [PU-H48]
2.08 ± 1.49 µM	> 100 µM	–	> 100 µM	C#CCCCn1cnc(N)c2nc(Sc3cc(Cl)c(Cl)cc3Cl)nc1-2 [PU-H52]
200 µM	> 100 µM	–	> 100 µM	C#CCCCn1cnc(N)c2nc(Sc3cc(Cl)ccc3C(F)(F)F)nc1-2 [PU-H53]
2.3 ± 0.1 µM	5.9 ± 0.5 µM	–	2.5 ± 0.2 µM	C#CCCCn1cnc(N)c2nc(Sc3cc(Br)ccc3OC)nc1-2 [PU-H63]
